Source: patent US20230086702A1, “SUBSTITUTED 2-AMINO-PYRAZOLYL-[1,2,4]TRIAZOLO[1,5A]PYRIDINE DERIVATIVES AND USE THEREOF” (The Johns Hopkins University, priority 2019, published 2023)

Columns and labels:
DLK = target: T1, DLK (Homo sapiens, UniProt Q12852); assay: DLK biochemical assay (TR-FRET, MKK7 phosphorylation)
T1 construct: 10 nM DLK, catalytic domain, Carna Biosiences; purchased Carna Biosciences ('Carna Biosiences' [sic])
T1 sequence (Q12852 125-366 limits assumed): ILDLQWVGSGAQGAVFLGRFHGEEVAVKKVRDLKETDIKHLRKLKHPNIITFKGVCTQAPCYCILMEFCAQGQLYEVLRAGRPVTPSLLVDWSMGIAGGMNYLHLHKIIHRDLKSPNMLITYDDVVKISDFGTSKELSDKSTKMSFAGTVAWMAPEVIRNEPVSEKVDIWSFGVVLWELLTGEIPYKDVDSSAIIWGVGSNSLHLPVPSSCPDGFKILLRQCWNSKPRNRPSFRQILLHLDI
How it was run: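 DLK catalytic domain (10 nM) phosphorylates His-MKK7 (15 nM) at 60 μM ATP for 90 min at RT in pH 7.5 Hepes buffer (final concentrations). Phospho-T275/S277 is detected by TR-FRET (Eu anti-phospho donor, XL665 anti-His acceptor) after 16 h at 37° C (1536 format) or 4° C (384 format).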

LZK = target: T2, LZK (Homo sapiens, UniProt O43283); assay: LZK biochemical assay (TR-FRET, MKK7 phosphorylation)
T2 construct: 10 nM LZK, catalytic domain, Carna Biosiences in assay buffer; purchased Carna Biosciences ('Carna Biosiences' [sic])
T2 sequence (O43283 168-409 limits assumed): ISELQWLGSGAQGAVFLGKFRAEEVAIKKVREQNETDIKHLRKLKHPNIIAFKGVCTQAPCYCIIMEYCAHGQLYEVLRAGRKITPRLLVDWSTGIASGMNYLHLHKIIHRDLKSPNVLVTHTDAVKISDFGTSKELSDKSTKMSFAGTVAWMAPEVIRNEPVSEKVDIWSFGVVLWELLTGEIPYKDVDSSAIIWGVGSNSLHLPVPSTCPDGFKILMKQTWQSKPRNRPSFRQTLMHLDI
How it was run: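 LZK catalytic domain (10 nM) phosphorylates His-MKK7 (15 nM) with 15 µM ATP, all final, for 90 min at RT in HEPES buffer pH 7.5 with MgCl2. Phospho-T275/S277 detected by TR-FRET (Eu anti-phospho donor, XL665 anti-His acceptor) after 16 h at 32 °C in EDTA stop buffer. Inhibition lowers the 665/Eu ratio.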

Structure (SMILES) | IC50 (DLK) | IC50 (LZK)
CCC(c1ccc(C(F)F)nc1)n1cc(-c2cc(-c3cnn(CC(F)(F)F)c3)c3nc(N)nn3c2)cn1 (single isomer, unassigned) [II-106, 6-(1-{1-[6-(Difluoromethyl)pyridin-3-yl]propyl}-1H-pyrazol-4-yl)-8-[1-(2,2,2-trifluoroethyl)-1H-pyrazol-4-yl][1,2,4]triazolo[1,5-a]pyridin-2-amine] | 40 nM | 47 nM
CC(C)C(c1ccc(C(F)(F)F)nc1)n1cc(-c2cc(-c3cnn(CC(F)(F)F)c3)n3nc(N)nc3c2)cn1 (stereo not drawn) [II-139] | 11 nM | 27 nM
CCC(c1ccc(N2CCOCC2)cc1)n1cc(-c2cc(-c3cnn(CC(F)(F)F)c3)c3nc(N)nn3c2)cn1 (racemic) [II-102, 6-(1-{1-[4-(Morpholin-4-yl)phenyl]propyl}-1H-pyrazol-4-yl)-8-[1-(2,2,2-trifluoroethyl)-1H-pyrazol-4-yl][1,2,4]triazolo[1,5-a]pyridin-2-amine] | 5.7 nM | 140 nM
CC(C)(O)c1cccc(-c2cc(-c3cnn(C(c4ccc(C(F)(F)F)nc4)C4CCOCC4)c3)cn3nc(N)nc23)c1 (single isomer, unassigned) [II-12, 2-{3-[2-Amino-6-(1-{tetrahydro-2H-pyran-4-yl[6-(trifluoromethyl)pyridin-3-yl]methyl}-1H-pyrazol-4-yl)[1,2,4]triazolo[1,5-a]pyridin-8-yl]phenyl}propan-2-ol] | 0.6 nM | 1.2 nM
CCC(c1ccc(C(F)(F)F)cc1)n1cc(-c2cc(-c3cnn(C4CCCC4)c3)n3nc(N)nc3c2)cn1 (single isomer, unassigned) [II-133, 5-(1-Cyclopentyl-1H-pyrazol-4-yl)-7-(1-{1-[4-(trifluoromethyl)phenyl]propyl}-1H-pyrazol-4-yl)[1,2,4]triazolo[1,5-a]pyridin-2-amine] | 45 nM | 130 nM
CC[C@@H](c1ccc(F)cc1)n1cc(-c2cc(-c3cnn(CC(F)(F)F)c3)c3nc(N)nn3c2)cn1 [II-98, 6-{1-[(1S)-1-(4-fluorophenyl)propyl]-1H-pyrazol-4-yl}-8-[1-(2,2,2-trifluoroethyl)-1H-pyrazol-4-yl][1,2,4]triazolo[1,5-a]pyridin-2-amine] | 14 nM | 56 nM
CCc1nnc(-c2cc(-c3cnn(Cc4ccccc4)c3)cn3nc(N)nc23)s1 [II-197, 6-(1-Benzyl-1H-pyrazol-4-yl)-8-(5-ethyl-1,3,4-thiadiazol-2-yl)[1,2,4]triazolo[1,5-a]pyridin-2-amine] | 240 nM | 690 nM
Nc1nc2cc(-c3cnn(C(c4ccc(C(F)(F)F)nc4)C4CCOCC4)c3)cc(-c3ccc(=O)n(C(F)F)c3)n2n1 (stereo not drawn) [II-182] | 4 nM | 6.5 nM
CCC(c1ccc(C(F)(F)F)cc1)n1cc(-c2cc(-c3cnn(C4CCCC4)c3)n3nc(N)nc3c2)cn1 (single isomer, unassigned) [II-134, 5-(1-Cyclopentyl-1H-pyrazol-4-yl)-7-(1-{1-[4-(trifluoromethyl)phenyl]propyl}-1H-pyrazol-4-yl)[1,2,4]triazolo[1,5-a]pyridin-2-amine] | 32 nM | 44 nM
CCS(=O)(=O)c1cccc(-c2cc(-c3cnn(C(c4ccc(C(F)(F)F)nc4)C4CCOCC4)c3)cn3nc(N)nc23)c1 (single isomer, unassigned) [II-17, 8-[3-(Ethylsulfonyl)phenyl]-6-(1-{tetrahydro-2H-pyran-4-yl[6-(trifluoromethyl)pyridin-3-yl]methyl}-1H-pyrazol-4-yl)[1,2,4]triazolo[1,5-a]pyridin-2-amine] | 2.1 nM | 11 nM
Nc1nc2cc(-c3cnn(Cc4ccccc4)c3)cc(-c3ccc(C4CC4)nc3)n2n1 [II-47, 7-(1-Benzyl-1H-pyrazol-4-yl)-5-(6-cyclopropylpyridin-3-yl)[1,2,4]triazolo[1,5-a]pyridin-2-amine] | 33 nM | 120 nM
CCC(c1ccc(C(F)F)nc1)n1cc(-c2cc(-c3ccc(C4CC4)nc3)n3nc(N)nc3c2)cn1 (racemic) [II-67, 5-(6-Cyclopropylpyridin-3-yl)-7-(1-{1-[6-(difluoromethyl)pyridin-3-yl]propyl}-1H-pyrazol-4-yl)[1,2,4]triazolo[1,5-a]pyridin-2-amine] | 12 nM | 15 nM
CCC(c1ccc(C(F)(F)F)nc1)n1cc(-c2cc(-c3cccc(C(C)(C)O)c3)c3nc(N)nn3c2)cn1 (racemic) [II-7, 2-{3-[2-Amino-6-(1-{1-[6-(trifluoromethyl)pyridin-3-yl]propyl}-1H-pyrazol-4-yl)[1,2,4]triazolo[1,5-a]pyridin-8-yl]phenyl}propan-2-ol] | 0.8 nM | 3.3 nM
Nc1nc2cc(-c3cnn(C(c4ccc(C(F)(F)F)nc4)C4CCOCC4)c3)cc(-c3ccc(=O)n(C(F)F)c3)n2n1 (single isomer, unassigned) [II-184, 5-[2-Amino-7-(1-{tetrahydro-2H-pyran-4-yl[6-(trifluoromethyl)pyridin-3-yl]methyl}-1H-pyrazol-4-yl)[1,2,4]triazolo[1,5-a]pyridin-5-yl]-1-(difluoromethyl)pyridin-2(1H)-one] | 1.2 nM | 2.4 nM
Nc1nc2c(-c3cccc(S(=O)(=O)C(F)(F)F)c3)cc(-c3cnn(C(c4ccc(C(F)(F)F)nc4)C4CCOCC4)c3)cn2n1 (single isomer, unassigned) [II-20, 6-(1-{Tetrahydro-2H-pyran-4-yl[6-(trifluoromethyl)pyridin-3-yl]methyl}-1H-pyrazol-4-yl)-8-{3-[(trifluoromethyl)sulfonyl]phenyl}[1,2,4]triazolo[1,5-a]pyridin-2-amine] | 71 nM | 140 nM
Nc1nc2c(-c3ccc(=O)n(C(F)F)c3)cc(-c3cnn(C(c4ccc(C(F)(F)F)nc4)C4CCOCC4)c3)cn2n1 (single isomer, unassigned) [II-154, 5-[2-Amino-6-(1-{tetrahydro-2H-pyran-4-yl[6-(trifluoromethyl)pyridin-3-yl]methyl}-1H-pyrazol-4-yl)[1,2,4]triazolo[1,5-a]pyridin-8-yl]-1-(difluoromethyl)pyridin-2(1H)-one] | 6.2 nM | 15 nM
CN(C)c1cccc(-c2cc(-c3cnn(C(c4ccc(C(F)(F)F)nc4)C4CCOCC4)c3)cn3nc(N)nc23)c1 (single isomer, unassigned) [II-24, 8-[3-(Dimethylamino)phenyl]-6-(1-{tetrahydro-2H-pyran-4-yl[6-(trifluoromethyl)pyridin-3-yl]methyl}-1H-pyrazol-4-yl)[1,2,4]triazolo[1,5-a]pyridin-2-amine] | 0.5 nM | 2.3 nM
Nc1nc2c(-c3cn(CC(F)(F)F)c(=O)cn3)cc(-c3cnn(C(c4ccc(C(F)(F)F)nc4)C4CCOCC4)c3)cn2n1 (stereo not drawn) [II-166] | 4 nM | 27 nM
CC(C)C(c1ccc(C(F)(F)F)nc1)n1cc(-c2cc(-c3ccc(C4CC4)nc3)n3nc(N)nc3c2)cn1 (single isomer, unassigned) [II-59, 5-(6-Cyclopropylpyridin-3-yl)-7-(1-{2-methyl-1-[6-(trifluoromethyl)pyridin-3-yl]propyl}-1H-pyrazol-4-yl)[1,2,4]triazolo[1,5-a]pyridin-2-amine] | 92 nM | 190 nM
CC[C@@H](c1ccccc1)n1cc(-c2cc(-c3cnn(C(C)C(F)(F)F)c3)c3nc(N)nn3c2)cn1 (single isomer, unassigned) [II-95] | 5.6 nM | 40 nM
Nc1nc2c(-c3cccc(S(=O)(=O)C(F)(F)F)c3)cc(-c3cnn(C(c4ccc(C(F)(F)F)nc4)C4CCOCC4)c3)cn2n1 (single isomer, unassigned) [II-21, 6-(1-{Tetrahydro-2H-pyran-4-yl[6-(trifluoromethyl)pyridin-3-yl]methyl}-1H-pyrazol-4-yl)-8-{3-[(trifluoromethyl)sulfonyl]phenyl}[1,2,4]triazolo[1,5-a]pyridin-2-amine] | 7.6 nM | 14 nM
CCC(c1ccc(C(F)(F)F)nc1)n1cc(-c2cc(-c3ccn(C)c(=O)c3)c3nc(N)nn3c2)cn1 (single isomer, unassigned) [II-171, 4-[2-Amino-6-(1-{1-[6-(trifluoromethyl)pyridin-3-yl]propyl}-1H-pyrazol-4-yl)[1,2,4]triazolo[1,5-a]pyridin-8-yl]-1-methylpyridin-2(1H)-one] | 9.3 nM | 41 nM
CC(C)[C@@H](c1ccc(C(F)(F)F)nc1)n1cc(-c2cc(-c3cnn(CC(F)(F)F)c3)n3nc(N)nc3c2)cn1 [II-140] | 3 nM | 13 nM
CCC(c1ccc(C(F)(F)F)nc1)n1cc(-c2cc(-c3ccc(C4CC4)nc3)n3nc(N)nc3c2)cn1 (racemic) [II-55, 5-(6-Cyclopropylpyridin-3-yl)-7-(1-{1-[6-(trifluoromethyl)pyridin-3-yl]propyl}-1H-pyrazol-4-yl)[1,2,4]triazolo[1,5-a]pyridin-2-amine] | 21 nM | 24 nM
